Laboratory results as given in patent US20020177621A1, “Antifungal fragrance composition” (priority 2000, published 2002).
Several values for one entry are separate records, joined by “and”; a condition that tells them apart may be missing. Identical values can stand only once. Entries after “also recorded” stand apart in the source; their conditions may differ.

What was measured:
Format in all cases: cell-based
[1] = test system: An-1 (Aspergillus niger); assay: Confirmation of synergistic action of two fragrances (vapor, paper disc); conditions: for Synergistic effect: second fragrance that shows synergistic action with the fragrance component / Antagonistic effect: second fragrance that shows antagonistic action with the fragrance component / Additive effect: second fragrance that shows additive action with the fragrance component: value = combination partner; for Synergistic effect: second fragrance that shows synergistic action with the fragrance component: combined IZ 20 mm or more larger than sum of single IZ; for Antagonistic effect: second fragrance that shows antagonistic action with the fragrance component: combined IZ 20 mm or more smaller than sum of single IZ; for Additive effect: second fragrance that shows additive action with the fragrance component: combined IZ intermediate; for IZ (diameter of growth inhibition zone) / Growth (growth status outside the inhibition zone) / SI (diameter of spore formation inhibition zone): 72 hours at 27° C.; for IZ (diameter of growth inhibition zone): sample amount on disc: citral 2 μl, benzaldehyde 10 μl, dimethyl tetrahydrobenzaldehyde 20 μl, geraniol 10 μl, octyl aldehyde 20 μl, 9-decen-1-ol 0.5 μl, trans-2-undecenal 3 μl, phenylacetaldehyde 5 μl, A + B = both amounts on one disc; for Growth (growth status outside the inhibition zone): sample amounts as in Table 3 (citral 2 μl, benzaldehyde 10 μl, dimethyl tetrahydrobenzaldehyde 20 μl, geraniol 10 μl, octyl aldehyde 20 μl, 9-decen-1-ol 0.5 μl, trans-2-undecenal 3 μl, phenylacetaldehyde 5 μl; A + B = both); for SI (diameter of spore formation inhibition zone): sample amounts as in Table 3 (citral 2 μl, benzaldehyde 10 μl, dimethyl tetrahydrobenzaldehyde 20 μl, geraniol 10 μl, octyl aldehyde 20 μl, trans-2-undecenal 3 μl, phenylacetaldehyde 5 μl; A + B = both)
Method: An agar plate prepared according to the method of Example 1 was used while using An-1 (Aspergillus niger) for the test fungi. […] 10 μl of the ethanol containing the Table 3 prescribed amount of the fragrance was impregnated into a paper disc. The test agar plate was placed inversely, and the paper disc impregnated with each fragrance alone and a paper disc simultaneously impregnated with two types of fragrances were placed in the center of the cover, followed by incubating for 72 hours at 27° C. and measuring the diameters of the resulting growth inhibition zones.
The results obtained as in Example 2 with other combinations are shown in Tables 4 through 7 as combination examples of respective synergistic, additive and antagonistic actions for each fragrant chemical product (a). […] It should be noted that in order to make the table smaller, combinations that have already been listed once are not listed in other columns of the tables.

[2] = test system: Aspergillus niger IFO 9455 (An-1); assay: Fragrant vapor antifungal activity (impregnated paper disc on cover of inverted agar plate); conditions: 72 hours at 27° C.; for IZ: Diameter of growth inhibition zone: 20 μl fragrance (or 40 μl of 50% ethanol solution) on disc, >85 = growth inhibited over entire plate; for Growth: Growth status outside the inhibition zone / SI: Diameter of spore formation inhibition zone: 20 μl fragrance on disc; for Growth: Growth status outside the inhibition zone: compared with control
Method: (§1) Physiological saline containing 0.05% Tween-80 was added to a slant on which the test organism grew well, and a spore suspension was produced at 1×10^6 CFU (Colony Forming Units)/ml in accordance with ordinary methods. Potato dextrose agar (PDA: Nissui Pharmaceutical) was used for the medium. To begin with, 10 ml of sterile PDA was pipetted into a Petri dish and after it solidified, another 6 ml of PDA containing 1% of the above described spore suspension was overlaid and solidified to prepare the test agar plate. For the fragrance sample, if the sample is in the form of liquid at ordinary temperatures, 20 μl of liquid was directly impregnated into a paper disc (Advantech, diameter: 8 mm, thick material), while a 50% by weight ethanol solution was prepared for crystals or powder, and 40 μl of that solution was then impregnated into the paper disc.
(§2) The test agar plate was placed inversely, and the paper disc impregnated with the fragrance sample was placed in the center of the cover of the agar plate, followed by incubating for 72 hours at 27° C. Evaluation was made based on the diameter (mm) of the mold growth inhibition zone. When mold growth was inhibited over the entire surface of the agar plate, the diameter of the growth inhibition zone was reported as >85 mm. At locations where mold grew outside the inhibition zone, the diameter of the spore formation inhibition zone and the degree of growth were recorded by comparing with a control. The molds used in the test are shown in Table 1, wherein these molds consist of mold species that are isolated at high frequencies from rooms and bath rooms.
(§3) The amount of blended fragrance added to the paper discs was 20 μl each, and only the diameter of the inhibition zone (mm) is indicated for the results.

[3] = test system: Cladosporium cladosporioides IFO 6348 (Cc-1); assay: as above; conditions: 72 hours at 27° C.; for IZ: Diameter of growth inhibition zone: 20 μl fragrance (or 40 μl of 50% ethanol solution) on disc, >85 = growth inhibited over entire plate; for Growth: Growth status outside the inhibition zone: compared with control
Method: as §1, §2, §3

[4] = test system: Aureobasidium pullulans IFO 6353 (Ap-1); assay: as above; conditions: 72 hours at 27° C.; for IZ: Diameter of growth inhibition zone: 20 μl fragrance (or 40 μl of 50% ethanol solution) on disc, >85 = growth inhibited over entire plate; for Growth: Growth status outside the inhibition zone / SI: Diameter of spore formation inhibition zone: 20 μl fragrance on disc; for Growth: Growth status outside the inhibition zone: compared with control
Method: as §1, §2, §3

SMILES | Synergistic effect: second fragrance that shows synergistic action with the fragrance component [1] | Antagonistic effect: second fragrance that shows antagonistic action with the fragrance component [1] | IZ: Diameter of growth inhibition zone [2] [mm] | Growth: Growth status outside the inhibition zone [2] | IZ: Diameter of growth inhibition zone [3] [mm] | Growth: Growth status outside the inhibition zone ([3]; 20 μl fragrance on disc) | IZ: Diameter of growth inhibition zone [4] [mm] | Growth: Growth status outside the inhibition zone [4] | Additive effect: second fragrance that shows additive action with the fragrance component [1] | SI: Diameter of spore formation inhibition zone [2] [mm] | SI: Diameter of spore formation inhibition zone [4] [mm] | IZ (diameter of growth inhibition zone) [1] [mm] | Growth (growth status outside the inhibition zone) [1] | SI (diameter of spore formation inhibition zone) [1] [mm] | SI: Diameter of spore formation inhibition zone ([3]; 20 μl fragrance on disc) [mm]
O=CCCc1ccccc1 [3-Phenylpropanal] | Citral DMA; also recorded: Citral DEA; also recorded: Citronellal; also recorded: Salicylic aldehyde, | Geraniol | >85 | none | >85 | none | >85 | none |  |  |  |  |  |  | 
C=CCCCCCCCCC=O [10-undecen-1-al] |  |  | >85 | none | >85 | sparse | >85 | sparse | Furfural,; also recorded: Geraniol |  |  |  |  |  | 
COc1ccc(C=O)cc1 [Anisaldehyde] |  |  | 45 |  | >85 |  | 35 |  |  | 60 | 40 |  |  |  | 
O=Cc1ccccc1 [Benzaldehyde] |  |  | >85 | none | >85 | none | >85 | none |  |  |  | 15 | slight | >85 | 
COC(/C=C/c1ccccc1)OC [Cinnamic aldehyde DMA, cinnamic aldehydodimethylacetal] |  |  | 35 | weak | 0 | good | 65 | slight |  | 45 |  |  |  |  | 
COC(C=C(C)CCC=C(C)C)OC [Citral DMA, citral dimethylacetal] |  |  | >85 | none | >85 | none | >85 | none |  |  |  |  |  |  | 
CC(C)=CCCC(C)=CC=O [Citral] |  |  | >85 | none | >85 | none | >85 | none |  |  |  | 0 | weak | 20 | 
CC(C)=CCCC(C)CC=O (stereo not drawn) [Citronellal] |  |  | 15 | weak | >85 | sparse | >85 | sparse | Thymol, and 1-Decanol, and Citronellol |  |  |  |  |  | 
CC(C)=CCCC(C)CCO (stereo not drawn) [Citronellol] | Citral DMA,; also recorded: Citral DEA, | Thymol and 9-Decen-1-ol | 35 | good | 35 | weak | 35 | weak | 1-Nonanal, and 1-Decanol, and Anisaldehyde | 55 |  |  |  |  | 
CC(C)c1ccc(C=O)cc1 [Cumin aldehyde] | Citral DEA; also recorded: Geraniol; also recorded: Cinnamic aldehyde DMA,; also recorded: Phenylacetaldehyde; also recorded: Decanol, Anisaldehyde,; also recorded: Citronellol |  | >85 | none | >85 | none | >85 | none |  |  |  |  |  |  | 
CCCCCCCCC=O [Example 1-nonanal, 1-nonanal] |  |  | 20 | weak | >85 | sparse | >85 | sparse |  |  |  |  |  |  | 
CC(C=O)Cc1ccc2c(c1)OCO2 (stereo not drawn) [Helional] |  |  | 10 | good | 0 | weak | 35 | weak |  | 35 |  |  |  |  | 
CC(C)c1cccc(=O)c(O)c1 [Hinokitiol] |  |  | 60 | good | 0 | good | 70 | good |  |  |  |  |  |  | 
CC=Cc1ccc(O)c(OC)c1 [Isoeugenol] |  |  | 30 | good | 45 | good | 35 | good |  | 50 | 40 |  |  |  | 55
COC(=O)c1ccccc1O [Methyl salicylate] |  |  | 40 | weak | 0 | good | 65 | weak |  |  |  |  |  |  | 
C=C(C)C1CC=C(C=O)CC1 (stereo not drawn) [Perill aldehyde] |  |  | >85 | none | >85 | none | >85 | none |  |  |  |  |  |  | 
C=C(C)[C@@H]1CC=C(CO)CC1 [Perilla alcohol] |  |  | 30 | good | 45 | slight | 40 | slight |  | 40 |  |  |  |  | 
O=CCc1ccccc1 [Phenylacetaldehyde] |  |  |  |  |  |  |  |  |  |  |  | 25 | good | 30 | 
Cc1ccc(C(C)C)c(O)c1 [Thymol] |  |  | 70 | weak | >85 | sparse | >85 | sparse |  | >85 |  |  |  |  | 
